Experimental data: patent US9290451B2 (Hoffmann-La Roche Inc., priority 2011, dated 2016)
Read-outs that look alike come from different tables or passages of the source.

Experiments:
human CB1 receptors = human CB1 receptors (Homo sapiens (Human), UniProt P21554); assay: cAMP assay, CHO cells expressing human CB1 receptors; type: cell-based
Method in brief: (§1)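 Agonist EC50 values come from cAMP levels measured in intact CHO cells. Compounds act for 30 min at 30 °C in the presence of 1 mM IBMX, and cAMP is then detected by time-resolved energy transfer after lysis.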

human CB2 receptors = human CB2 receptors (Homo sapiens (Human), UniProt P34972); assay: cAMP assay, CHO cells expressing human CB2 receptors; type: cell-based
human CB2 receptors, sequence (P34972 whole entry): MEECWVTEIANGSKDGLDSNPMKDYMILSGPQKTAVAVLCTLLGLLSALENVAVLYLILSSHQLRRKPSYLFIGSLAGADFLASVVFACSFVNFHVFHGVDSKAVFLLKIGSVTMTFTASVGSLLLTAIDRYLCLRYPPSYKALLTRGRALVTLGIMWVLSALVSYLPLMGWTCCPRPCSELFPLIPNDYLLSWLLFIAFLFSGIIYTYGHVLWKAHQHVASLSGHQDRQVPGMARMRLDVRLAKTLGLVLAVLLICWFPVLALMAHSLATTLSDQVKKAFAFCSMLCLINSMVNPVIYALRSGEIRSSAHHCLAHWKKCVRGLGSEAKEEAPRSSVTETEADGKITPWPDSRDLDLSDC
Method in brief: as §1

[1] = CHO cells expressing human CB1, cAMP, read-out: human CB1 EC50
[2] = CHO cells expressing human CB2, cAMP, read-out: human CB2 EC50

human CB1 receptors, sequence (P21554 whole entry): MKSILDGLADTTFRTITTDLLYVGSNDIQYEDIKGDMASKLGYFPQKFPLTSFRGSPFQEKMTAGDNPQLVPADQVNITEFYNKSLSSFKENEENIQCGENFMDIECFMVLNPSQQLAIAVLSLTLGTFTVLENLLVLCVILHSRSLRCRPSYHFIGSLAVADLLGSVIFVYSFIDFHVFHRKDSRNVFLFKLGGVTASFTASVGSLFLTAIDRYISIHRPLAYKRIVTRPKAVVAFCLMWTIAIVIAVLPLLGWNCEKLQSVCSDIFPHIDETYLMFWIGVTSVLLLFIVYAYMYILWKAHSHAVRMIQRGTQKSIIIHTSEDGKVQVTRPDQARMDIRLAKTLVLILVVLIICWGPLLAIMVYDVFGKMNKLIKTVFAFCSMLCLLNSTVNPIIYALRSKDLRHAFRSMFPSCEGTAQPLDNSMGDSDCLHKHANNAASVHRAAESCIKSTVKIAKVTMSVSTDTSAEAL

Row | Compound | EC50 (human CB1 receptors; [1]) | EC50 (human CB2 receptors; [2]) | EC50 (human CB1 receptors) | EC50 (human CB2 receptors)
1 | CC(C)C[C@H](NC(=O)c1ccc(N2CC(F)(F)C2)c(OCC2CC2)n1)c1cccnn1 [Example 355, 6-Cyclopropylmethoxy-5-(3,3-difluoro-azetidin-1-yl)-pyridine-2-carboxylic acid ((S)-3-methyl-1-pyridazin-3-yl-butyl)-amide] | > 10000 nM | 80.1 nM |  | 
2 | CCC(CC)(NC(=O)c1ccc(C2CC2)c(OCC2CC2)n1)C(=O)NCCO [Example 356, 5-Cyclopropyl-6-cyclopropylmethoxy-pyridine-2-carboxylic acid [1-ethyl-1-(2-hydroxy-ethylcarbamoyl)-propyl]-amide] | > 10000 nM | 5.2 nM |  | 
3 | Cc1nc([C@](C)(CC2CC2)NC(=O)c2ccc(C3CC3)c(OCC3CC3)n2)no1 [Example 357, 5-Cyclopropyl-6-cyclopropylmethoxy-pyridine-2-carboxylic acid [(+)-2-cyclopropyl-1-methyl-1-(5-methyl-[1,2,4]oxadiazol-3-yl)-ethyl]-amide] | 199 nM | 1.5 nM |  | 
4 | Cc1nc([C@@](C)(CC2CC2)NC(=O)c2ccc(C3CC3)c(OCC3CC3)n2)no1 [Example 358, 5-Cyclopropyl-6-cyclopropylmethoxy-pyridine-2-carboxylic acid [(−)-2-cyclopropyl-1-methyl-1-(5-methyl-[1,2,4]oxadiazol-3-yl)-ethyl]-amide] | 489 nM | 4.9 nM |  | 
5 | CC(C)(C)NC(=O)c1ccc(N2CC(F)(F)C2)c(OCC2CC2)n1 [Example 359, 6-Cyclopropylmethoxy-5-(3,3-difluoro-azetidin-1-yl)-pyridine-2-carboxylic acid tert-butylamide] | > 10000 nM | 6.9 nM |  | 
6 | CCOC(=O)C(CC)(CC)NC(=O)c1ccc(C2CC2)c(S(=O)(=O)CC(C)C)n1 [Example 360, 2-{[5-Cyclopropyl-6-(2-methyl-propane-1-sulfonyl)-pyridine-2-carbonyl]-amino}-2-ethyl-butyric acid ethyl ester] | 88.5 nM | 2.4 nM |  | 
7 | CNC(=O)[C@H](CC(C)(C)C)NC(=O)c1ccc(C2CC2)c(S(=O)(=O)CC(C)C)n1 [Example 361, 5-Cyclopropyl-6-(2-methyl-propane-1-sulfonyl)-pyridine-2-carboxylic acid ((S)-3,3-dimethyl-1-methylcarbamoyl-butyl)-amide] | > 10000 nM | 42.5 nM |  | 
8 | O=C(N[C@H]1CCOC1=O)c1ccc(C2CC2)c(OCC2CC2)n1 [Example 362, 5-Cyclopropyl-6-cyclopropylmethoxy-pyridine-2-carboxylic acid ((S)-2-oxo-tetrahydro-furan-3-yl)-amide] | > 10000 nM | 441 nM |  | 
9 | CC(C)(C)OC(=O)N(CC1CC1)NC(=O)c1ccc(C2CC2)c(OCC2CC2)n1 [Example 363, N′-(5-Cyclopropyl-6-cyclopropylmethoxy-pyridine-2-carbonyl)-N-cyclopropylmethyl-hydrazinecarboxylic acid tert-butyl ester] | > 10000 nM | 38 nM |  | 
10 | CNC(=O)[C@@H](NC(=O)c1ccc(C2CC2)c(S(=O)(=O)CC(C)C)n1)C(C)(C)C [Example 364, 5-Cyclopropyl-6-(2-methyl-propane-1-sulfonyl)-pyridine-2-carboxylic acid ((S)-2,2-dimethyl-1-methylcarbamoyl-propyl)-amide] |  |  | > 10000 nM | 12.9 nM
11 | CC(C)CS(=O)(=O)c1nc(C(=O)N[C@@H](c2cccnc2)C(F)(F)F)ccc1C1CC1 [Example 365, 5-Cyclopropyl-6-(2-methyl-propane-1-sulfonyl)-pyridine-2-carboxylic acid ((S)-2,2,2-trifluoro-1-pyridin-3-yl-ethyl)-amide] | > 10000 nM | 13.9 nM |  | 
12 | CC(C)C[C@H](NC(=O)c1ccc(C2CC2)c(OCC2CC2)n1)C(=O)OC(C)(C)C [Example 366, (S)-2-[(5-Cyclopropyl-6-cyclopropylmethoxy-pyridine-2-carbonyl)-amino]-4-methyl-pentanoic acid tert-butyl ester] | > 10000 nM | 26.4 nM |  | 
13 | CCC(CC)(NC(=O)c1ccc(C2CC2)c(S(=O)(=O)CC(C)C)n1)C(=O)NC [Example 367, 5-Cyclopropyl-6-(2-methyl-propane-1-sulfonyl)-pyridine-2-carboxylic acid (1-ethyl-1-methylcarbamoyl-propyl)-amide] | > 10000 nM | 195 nM |  | 
14 | CC(C)(C)NC(=O)c1ccc(C2CC2)c(OCC2CC2)n1 [Example 368, 5-Cyclopropyl-6-cyclopropylmethoxy-pyridine-2-carboxylic acid tert-butylamide] | > 10000 nM | 26.3 nM |  | 
15 | CC(C)(C)NC(=O)c1ccc(C2CC2)c(OCC2CCCO2)n1 (stereo not shown) [Example 369, 5-Cyclopropyl-6-(tetrahydro-furan-2-ylmethoxy)-pyridine-2-carboxylic acid tert-butylamide] | > 10000 nM | 12 nM |  | 
16 | CC1(NC(=O)c2ccc(N3CC(F)(F)C3)c(OCC3CC3)n2)COC1 [Example 370, 6-Cyclopropylmethoxy-5-(3,3-difluoro-azetidin-1-yl)-pyridine-2-carboxylic acid (3-methyl-oxetan-3-yl)-amide] | > 10000 nM | 96.4 nM |  | 
17 | O=C(NN1CCCOC1=O)c1ccc(C2CC2)c(OCC2CC2)n1 [Example 371, 5-Cyclopropyl-6-cyclopropylmethoxy-pyridine-2-carboxylic acid (2-oxo-[1,3]oxazinan-3-yl)-amide] | > 10000 nM | 436 nM |  | 
18 | CC(C)C[C@H](NC(=O)c1ccc(C2CC2)c(OC(C)C(F)(F)F)n1)C(N)=O (stereo partly drawn) [Example 372, 5-Cyclopropyl-6-(2,2,2-trifluoro-1-methyl-ethoxy)-pyridine-2-carboxylic acid ((S)-1-carbamoyl-3-methyl-butyl)-amide] |  |  | > 10000 nM | 53.4 nM
19 | Cc1nc(C(C)(C)NC(=O)c2ccc(C3CC3)c(OC(C)C(F)(F)F)n2)no1 (stereo not shown) [Example 373, 5-Cyclopropyl-6-(2,2,2-trifluoro-1-methyl-ethoxy)-pyridine-2-carboxylic acid [1-methyl-1-(5-methyl-[1,2,4]oxadiazol-3-yl)-ethyl]-amide] | > 10000 nM | 127 nM |  | 
20 | NC(=O)[C@@H](NC(=O)c1ccc(C2CC2)c(OCC2CC2)n1)C1CC1 [Example 374, 5-Cyclopropyl-6-cyclopropylmethoxy-pyridine-2-carboxylic acid ((+)-carbamoyl-cyclopropyl-methyl)-amide] | > 10000 nM | 28.1 nM |  | 
21 | NC(=O)[C@H](NC(=O)c1ccc(C2CC2)c(OCC2CC2)n1)C1CC1 [Example 375, 5-Cyclopropyl-6-cyclopropylmethoxy-pyridine-2-carboxylic acid ((−)-carbamoyl-cyclopropyl-methyl)-amide] | > 10000 nM | 358 nM |  | 
22 | NC(=O)[C@@H](NC(=O)c1ccc(N2CC(F)(F)C2)c(OCC2CC2)n1)C1CC1 [Example 376, 6-Cyclopropylmethoxy-5-(3,3-difluoro-azetidin-1-yl)-pyridine-2-carboxylic acid ((+)-carbamoyl-cyclopropyl-methyl)-amide] | > 10000 nM | 59.5 nM |  | 
23 | NC(=O)[C@H](NC(=O)c1ccc(N2CC(F)(F)C2)c(OCC2CC2)n1)C1CC1 [Example 377, 6-Cyclopropylmethoxy-5-(3,3-difluoro-azetidin-1-yl)-pyridine-2-carboxylic acid ((−)-carbamoyl-cyclopropyl-methyl)-amide] | > 10000 nM | 178 nM |  | 
24 | O=C(NC1(C(F)(F)F)CC1)c1ccc(N2CC(F)(F)C2)c(OCC2CC2)n1 [Example 378, 6-Cyclopropylmethoxy-5-(3,3-difluoro-azetidin-1-yl)-pyridine-2-carboxylic acid (1-trifluoromethyl-cyclopropyl)-amide] | > 10000 nM | 6.4 nM |  | 
25 | Cc1nc([C@](C)(NC(=O)c2ccc(C3CC3)c(S(=O)(=O)CC(C)C)n2)C2CC2)no1 [Example 381, (+)-5-Cyclopropyl-6-(2-methyl-propane-1-sulfonyl)-pyridine-2-carboxylic acid [1-cyclopropyl-1-(5-methyl-[1,2,4]oxadiazol-3-yl)-ethyl]-amide] | 240 nM | 11.4 nM |  | 
26 | Cc1nc([C@@](C)(NC(=O)c2ccc(C3CC3)c(S(=O)(=O)CC(C)C)n2)C2CC2)no1 [Example 382, (−)-5-Cyclopropyl-6-(2-methyl-propane-1-sulfonyl)-pyridine-2-carboxylic acid [1-cyclopropyl-1-(5-methyl-[1,2,4]oxadiazol-3-yl)-ethyl]-amide] | > 10000 nM | 50.8 nM |  | 
